In brackets after ≈: the same amount, converted by molar mass.

A short description of this data set: physchem. To be noted: pH 7.4 buffer.
Usually solubility (thermodynamic) stands for solubility found after equilibrating the solid with the medium. Molecule `O=S(=O)(NCCNC/C=C/c1ccc(Br)cc1)c1cccc2cnccc12` returned a thermodynamic solubility of 61.7 µM (≈ 27.5 µg/mL).
In turn, `O=C(O)c1csc(NC(=O)C(CC2CCCC2)c2ccc(Cl)c(Cl)c2)n1` (configuration not stated) registered a thermodynamic solubility of 34.7 µM (≈ 14.3 µg/mL).
Take `CC(C)Oc1cccc(NC(=O)c2ccc3cc(C(=N)N)ccc3c2)c1`: the thermodynamic solubility came out at 64.6 µM (≈ 22.4 µg/mL).
`COc1cccc(C(=O)N2CCC(C(=O)c3ccc(F)cc3)CC2)c1` had a solubility (thermodynamic) of 58.9 µM (≈ 20.1 µg/mL).
The molecule `O=c1cc(CN2CCOCC2)occ1OCCCCCSc1ccnc2cc(C(F)(F)F)ccc12` displayed a thermodynamic solubility of 77.6 µM (≈ 39.5 µg/mL).
In the case of `Cc1cc2oc(=O)cc(Cn3ccnc3)c2cc1C`, the thermodynamic solubility was 33.9 µM (≈ 8.62 µg/mL).
The result for `COc1ccc2oc(=O)c(C(C)=O)cc2c1` reads 49 µM (≈ 10.7 µg/mL).
To `O=C(c1ccccc1)C1CCN(C(=O)c2cccs2)CC1` belongs 79.4 µM (≈ 23.8 µg/mL).
The result for `COCCOc1cc2nccc(Nc3ccc(Cl)cc3F)c2cc1OC` reads 33.9 µM (≈ 12.8 µg/mL); that for `Cc1cnc(NC(=O)CSc2nnc(C)s2)s1`, 70.8 µM (≈ 20.3 µg/mL).
`COc1ccc(-c2cnn(C3CCS(=O)(=O)C3)c2N)cc1` (configuration not stated): the thermodynamic solubility was 81.3 µM (≈ 25 µg/mL).
To `COc1ccc(Cl)c(Nc2ncnc3cc(OCCCN4CCOCC4)c(OC)cc23)c1` belongs 72.4 µM (≈ 33.2 µg/mL); to `CC1(C)C(=O)N(c2ccc(SC(F)(F)F)cc2)C(=O)N1Cc1ccncc1`, 43.7 µM (≈ 17.3 µg/mL); to `COc1cc(C2CCNCC2)ccc1Nc1ncc(Cl)c(-c2cnc3ccccn23)n1`, 44.7 µM (≈ 19.4 µg/mL).
In turn, `COc1ccc(N2CCNCC2)cc1Nc1ncc(Cl)c(-c2cnc3ccccn23)n1` displayed a solubility (thermodynamic) of 69.2 µM (≈ 30.2 µg/mL).
In turn, `O=C(Nc1cccc(O)c1)c1ccc(OCCCN2CCCC2)cc1OC1CCCC1` displayed a thermodynamic solubility of 58.9 µM (≈ 25 µg/mL).
On to `O=C(Nc1ccccc1)c1ccc(OCCCN2CCCC2)cc1OCc1ccccc1`, for which the solubility (thermodynamic) worked out at 61.7 µM (≈ 26.6 µg/mL).
`N#Cc1ccccc1COc1cc(OCCCN2CCCC2)ccc1C(=O)Nc1ccccc1` displayed a solubility (thermodynamic) of 34.7 µM (≈ 15.8 µg/mL).
To `CCN(C(=O)NCc1cccc(C)c1)C1CCN(CCC(c2ccccc2)c2ccccc2)CC1` belongs 70.8 µM (≈ 33.3 µg/mL); to `CC(C)Oc1cc(OCc2ccccc2F)cc(C(=O)Nc2ccc(C(=O)O)cn2)c1`, 61.7 µM (≈ 26.2 µg/mL); to `COc1cccc(NC(=O)Cn2cc(Oc3ccnc4cc(OC)c(OC)cc34)cn2)c1`, 66.1 µM (≈ 28.7 µg/mL).
For `CC(C)Oc1cc(OCC2CCCC2)cc(C(=O)Nc2ccc(C(=O)O)cn2)c1`, the thermodynamic solubility worked out at 45.7 µM (≈ 18.2 µg/mL).
`CCN(C(=O)Cc1ccc(S(C)(=O)=O)cc1)C1CCN(CC[C@@H](c2ccccc2)C2CCN(S(=O)(=O)C(F)(F)F)CC2)CC1` showed a thermodynamic solubility of 56.2 µM (≈ 37 µg/mL).
The result for `COc1ccc(Cl)c(Nc2ncnc3cc(OCCN4CCN(C(C)=O)CC4)cc(OC(C)C)c23)n1` reads 42.7 µM (≈ 22 µg/mL); that for `CN(C(=O)Cc1ccc(S(C)(=O)=O)cc1F)C1CCN(Cc2ccc(C(F)(F)F)cc2)CC1`, 74.1 µM (≈ 36.1 µg/mL).
`CO[C@@H]1CN(Cc2ccc(C(F)(F)F)cc2)CC[C@@H]1N(C)C(=O)Cc1ccc(-n2cnnn2)cc1` registered a solubility (thermodynamic) of 75.9 µM (≈ 37.1 µg/mL).
The molecule `CS(=O)(=O)Cc1cc(N2CCOCC2)nc(-c2cnc3[nH]ccc3c2)n1` gave a thermodynamic solubility of 47.9 µM (≈ 17.9 µg/mL).
`CN1CCN(CCCOc2cc(OC3CCOCC3)c3c(Nc4ccc(F)c(Cl)c4)ncnc3c2)CC1`: the solubility (thermodynamic) was 38 µM (≈ 20.1 µg/mL).
The result for `COc1cc2ncnc(Nc3cccc(Cl)c3F)c2cc1CN(C)C1(C(N)=O)CN(C)C1` reads 51.3 µM (≈ 23.5 µg/mL); that for `NC(=O)Nc1sc(-c2ccc(Cl)c(Cl)c2)cc1C(=O)N[C@H]1CCCNC1`, 66.1 µM (≈ 27.3 µg/mL).
In turn, `CC(C)(C)OC(=O)N1CCC(c2ncc(OCc3ccc(S(C)(=O)=O)cc3)cn2)CC1` displayed a solubility (thermodynamic) of 61.7 µM (≈ 27.6 µg/mL).
The result for `COc1ccc(NCc2ccc(C(=O)Nc3ccccc3N)cc2)cc1OC` reads 57.5 µM (≈ 21.7 µg/mL); that for `CCCSc1ncccc1C(=O)NC1CCCCC1`, 81.3 µM (≈ 22.6 µg/mL); that for `CC(C)(C)[C@@H](C#N)NC(=O)[C@@H]1CCCC[C@H]1C(=O)N1CCc2[nH]c3ccc(F)cc3c2C1`, 74.1 µM (≈ 32.5 µg/mL).
The molecule `N#CC1(NC(=O)[C@@H]2CCCC[C@H]2C(=O)N2CCc3[nH]c4ccc(C(F)(F)F)cc4c3C2)CC1` had a thermodynamic solubility of 74.1 µM (≈ 34 µg/mL).
`Cc1cc(C)cc(-c2[nH]c3sc(C(C)(C)C(=O)N4C5CCC4CC5)cc3c2C(=O)CN2CCN(CC(=O)N3CCCC3)CC2)c1` registered a thermodynamic solubility of 70.8 µM (≈ 44.6 µg/mL).
In turn, `C[C@@H](Oc1cccc2ncnc(Nc3ccc4c(cnn4Cc4cscn4)c3)c12)C(=O)N(C)C` gave a solubility (thermodynamic) of 43.7 µM (≈ 20.7 µg/mL).
To `C[C@H](Oc1cccc2ncnc(Nc3ccc4c(cnn4Cc4cscn4)c3)c12)C(=O)N(C)C` belongs 42.7 µM (≈ 20.2 µg/mL); to `NC(=O)Nc1sc(-c2ccc(F)cc2)cc1C(N)=O`, 67.6 µM (≈ 18.9 µg/mL); to `N#Cc1cccnc1-c1ccc(C(=O)Nc2ccccc2N)cc1`, 35.5 µM (≈ 11.2 µg/mL).
As for `Oc1cc(-c2ccccc2)nc2c(O)cccc12`, the thermodynamic solubility was found to be 41.7 µM (≈ 9.89 µg/mL).
As to `COc1cc2c(Nc3ccc(Br)cc3F)ncnc2cc1OCCCN1CCN(C)CC1`, the thermodynamic solubility was determined as 41.7 µM (≈ 21 µg/mL).
To `CC(=O)Nc1ccc(-c2ccccc2)cc1` belongs 79.4 µM (≈ 16.8 µg/mL); to `COc1cc(-c2nn[nH]n2)ccc1Cn1ncc2ccc(NC(=O)OC3CCCC3)cc21`, 43.7 µM (≈ 18.9 µg/mL); to `O=C(O)c1cc2c(Cl)cccc2n1Cc1ccc(Cl)c(Cl)c1`, 66.1 µM (≈ 23.4 µg/mL).
To `N=C(N)Nc1nc(-c2cccc(O)c2)cs1` belongs 79.4 µM (≈ 18.6 µg/mL); to `COc1cc2c(Nc3c(Cl)ccc4c3OCO4)ncnc2cc1OCCCN1CCOCC1`, 70.8 µM (≈ 33.5 µg/mL).
Regarding `COc1cc2ncnc(Nc3cccc(Cl)c3F)c2cc1CN1CC[C@H](C(N)=O)C1`, the thermodynamic solubility stood at 77.6 µM (≈ 33.4 µg/mL).
As for `COc1ccc(Cl)c(Nc2ncnc3cc(OCCCN4CCN(C(C)=O)CC4)cc(OC(C)C)c23)n1`, the solubility (thermodynamic) amounted to 50.1 µM (≈ 26.5 µg/mL).
To `COc1ccc(OC)c(NC(=O)Cc2cccs2)c1` belongs 74.1 µM (≈ 20.6 µg/mL).
In turn, `Cc1cc(C)cc(-c2[nH]c3sc(C(C)(C)C(=O)N4C5CCC4CC5)cc3c2C(=O)CN2CCC(C(=O)N3CCOCC3)CC2)c1` displayed a thermodynamic solubility of 72.4 µM (≈ 45.7 µg/mL).
To `CC(C)CCn1c(Cn2c(=O)n(C3CC3)c(=O)c3ccccc32)nc2cc(CN)ccc21` belongs 70.8 µM (≈ 30.6 µg/mL); to `CC(C)n1c2ccc(F)cc2c2cc(NC(=O)N3CCOCC3)ccc21`, 34.7 µM (≈ 12.3 µg/mL); to `COC1CCN(C(=O)C2CCN(CCc3c(-c4cc(C)cc(C)c4)[nH]c4sc(C(C)(C)C(=O)N5C6CCC5CC6)cc34)CC2)C1` (configuration not stated), 70.8 µM (≈ 44.7 µg/mL).
As to `CC1(C)Oc2ncnc(N)c2N=C1c1ccc(C23CC4CC(CC(CC(=O)O)(C4)C2)C3)cc1`, the solubility (thermodynamic) is 79.4 µM (≈ 35.5 µg/mL).
The result for `COCCNS(=O)(=O)c1ccc(Nc2nccc(-c3cnc(C)n3C3CCCC3)n2)cc1` reads 53.7 µM (≈ 24.5 µg/mL); that for `COCCN(C)S(=O)(=O)c1ccc(Nc2nccc(-c3cnc(C)n3C)n2)cc1`, 56.2 µM (≈ 23.4 µg/mL).
Turning to `Cc1ncc(-c2ccnc(Nc3ccc(N4CCOCC4)cc3)n2)n1C(C)C`, the thermodynamic solubility was 56.2 µM (≈ 21.3 µg/mL).
Molecule `CC(C)c1cc(C(=O)N[C@@H](Cc2cccc(Cl)c2)C(=O)NCC#N)n(C)n1` came in with a solubility (thermodynamic) of 47.9 µM (≈ 18.6 µg/mL).
In the case of `N=C(N)c1ccc2cc(C(=O)Nc3ccc4c(c3)OCO4)ccc2c1`, the thermodynamic solubility worked out at 44.7 µM (≈ 14.9 µg/mL).
`CC(C)OC(=O)c1cn(Cc2c(F)cccc2F)c2sc(-c3ccc(NC(=O)C(C)C)cc3)c(CN(C)Cc3ccccc3)c2c1=O` yielded a solubility (thermodynamic) of 38 µM (≈ 25 µg/mL).
To `Cc1c(NC(=O)OC[C@@H]2COCCN2)cn2ncnc(Nc3ccc4c(cnn4Cc4cccc(F)c4)c3)c12` [AC-480] belongs 1.7 µM (≈ 0.902 µg/mL); to `CCN1CCN(Cc2ccc(-c3cc4c(N[C@H](C)c5ccccc5)ncnc4[nH]3)cc2)CC1` [AEE-788], 58.9 µM (≈ 26 µg/mL); to `Cc1cccc(-c2ccc3c(c2)c(C(=O)C(=O)O)cn3Cc2ccc(C(C)(C)C)cc2)c1` [ALEPLASININ], 363 µM (≈ 155 µg/mL).
`COc1cc2ncnc(Nc3ccc(NC(=O)c4ccccc4)cc3)c2cc1OC` [ANILINOQUINAZOLINE1] gave a solubility (thermodynamic) of 10 µM (≈ 4 µg/mL).
`COc1ccc(Cl)c(Nc2ncnc3cc(OCC4CCN(C)CC4)c(OC)cc23)c1` [AZM-475271] gave a solubility (thermodynamic) of 324 µM (≈ 143 µg/mL).
The result for `Cc1c(-c2ccc(O)cc2)n(Cc2ccc(OCCN3CCCCCC3)cc2)c2ccc(O)cc12` [BAZEDOXIFENE] reads 5.2 µM (≈ 2.45 µg/mL); that for `c1ccc(-c2ccc(C(c3ccccc3)n3ccnc3)cc2)cc1` (configuration not stated) [BIFONAZOLE], 1.1 µM (≈ 0.341 µg/mL); that for `COc1ccc(/C=C\c2cc(OC)c(OC)c(OC)c2)cc1O` [COMBRETASTATIN A4], 144 µM (≈ 45.7 µg/mL).
The result for `COCC(=O)NC/C=C/c1ccc2ncnc(Nc3ccc(Oc4ccc(C)nc4)c(C)c3)c2c1` [CP-724714] reads 1.1 µM (≈ 0.516 µg/mL).
The result for `CN(C)C(=O)Nc1ccc(Cl)c(Cl)c1` [DCMU] reads 132 µM (≈ 30.7 µg/mL).
`CCC[C@@H]1O[C@@H]2C[C@H]3[C@@H]4CCC5=CC(=O)C=C[C@]5(C)[C@H]4[C@@H](O)C[C@]3(C)[C@]2(C(=O)CO)O1` [DEXBUDESONIDE] displayed a thermodynamic solubility of 19.5 µM (≈ 8.4 µg/mL).
`CC/C(=C(/CC)c1ccc(O)cc1)c1ccc(O)cc1` [DIETHYLSTILBESTROL] had a solubility (thermodynamic) of 25.1 µM (≈ 6.74 µg/mL).
Molecule `CN1CCN(c2ccc3nc(-c4c(N)c5c(F)cccc5[nH]c4=O)[nH]c3c2)CC1` [DOVITINIB] registered a thermodynamic solubility of 8.3 µM (≈ 3.26 µg/mL).
Molecule `O=C1NCNC1(c1ccccc1)c1ccccc1` [DOXENITOIN] returned a solubility (thermodynamic) of 316 µM (≈ 75.3 µg/mL).
Turning to `CC1(C)C=Cc2c(O)nc3ccccc3c2O1` [FLINDERSINE], the solubility (thermodynamic) came out at 67.6 µM (≈ 15.4 µg/mL).
`COc1ccc2[nH]c(=O)c3c(c2c1)OC(C)(C)C=C3` [HAPLAMINE] displayed a thermodynamic solubility of 87.1 µM (≈ 22.4 µg/mL).
`NC(=O)c1ccc(I)c([N+](=O)[O-])c1` [INIPARIB] registered a thermodynamic solubility of 417 µM (≈ 122 µg/mL).
To `CCCNC(=O)Nc1ccc(Oc2ncnc3cc(OC)c(OC)cc23)cc1Cl` [KRN-633] belongs 0.2 µM (≈ 0.0834 µg/mL); to `O=c1cc(-c2cccc3c2Sc2ccccc2S3)oc(N2CCOCC2)c1` [KU-55933], 7.1 µM (≈ 2.81 µg/mL).
Regarding `CC1(C)CNc2cc(NC(=O)c3cccnc3NCc3ccncc3)ccc21` [MOTESANIB], the thermodynamic solubility stood at 44.7 µM (≈ 16.7 µg/mL).
`COc1c(C)c2c(c(O)c1C/C=C(\C)CCC(=O)NO)C(=O)OC2` [MYCOPHENOLIC HYDROXAMIC ACID] displayed a thermodynamic solubility of 1000 µM (≈ 335 µg/mL).

These data come from ChEMBL document CHEMBL3301361, “Experimental in vitro DMPK and physicochemical data on a set of publicly disclosed compounds”.
